Experimental data: the NIST ThermoML archive (doi:10.1021/je300584m)
Where “and” joins values, the source holds several entries; their conditions need not be identical. Equal entries are not always repeated. ± gives the expanded uncertainty stated by the source.

What was measured:
[1] = for Normal melting temperature: DTA
[2] = Molar enthalpy of transition or fusion; conditions: Crystal; DSC

O=C1c2ccccc2-c2ccccc21 [9(9H)-fluorenone]
vapor or sublimation pressure [kPa], [1]
Conditions	Crystal	Liquid
312.19 K, Calculated from knudsen effusion weight loss	8.9e-05 ± 2e-05	–
314.21 K, Calculated from knudsen effusion weight loss	0.000115 ± 2e-05	–
316.11 K, Calculated from knudsen effusion weight loss	0.000143 ± 2.1e-05	–
318.18 K, Calculated from knudsen effusion weight loss	0.00018 ± 2.1e-05	–
320.2 K, Calculated from knudsen effusion weight loss	0.000225 ± 2.2e-05	–
322.11 K, Calculated from knudsen effusion weight loss	0.000273 ± 2.2e-05	–
324.19 K, Calculated from knudsen effusion weight loss	0.000344 ± 2.3e-05	–
326.19 K, Calculated from knudsen effusion weight loss	0.00043 ± 2.5e-05	–
326.88 K, Closed cell (Static) method	0.00045 ± 0.00011	–
327.85 K, Closed cell (Static) method	–	0.0008 ± 0.0001
328.11 K, Calculated from knudsen effusion weight loss	0.000528 ± 2.7e-05	–
328.32 K, Closed cell (Static) method	0.00053 ± 0.00011	–
329.82 K, Closed cell (Static) method	–	0.00095 ± 0.00012
329.83 K, Closed cell (Static) method	0.00061 ± 0.00011	–
330.18 K, Calculated from knudsen effusion weight loss	0.000638 ± 3e-05	–
331.3 K, Closed cell (Static) method	0.00072 ± 0.00012	–
331.79 K, Closed cell (Static) method	–	0.00112 ± 0.00012
332.18 K, Calculated from knudsen effusion weight loss	0.000796 ± 3.5e-05	–
332.81 K, Closed cell (Static) method	0.00085 ± 0.00012	–
333.8 K, Closed cell (Static) method	–	0.00133 ± 0.00012
334.1 K, Calculated from knudsen effusion weight loss	0.000977 ± 4e-05	–
334.29 K, Closed cell (Static) method	0.00098 ± 0.00012	–
335.78 K, Closed cell (Static) method	0.00113 ± 0.00012	0.00159 ± 0.00013
337.25 K, Closed cell (Static) method	0.00133 ± 0.00013	–
337.74 K, Closed cell (Static) method	–	0.00185 ± 0.00014
338.75 K, Closed cell (Static) method	0.00153 ± 0.00013	–
339.72 K, Closed cell (Static) method	–	0.00217 ± 0.00014
340.21 K, Closed cell (Static) method	0.00177 ± 0.00013	–
341.69 K, Closed cell (Static) method	0.00205 ± 0.00014	–
341.76 K, Closed cell (Static) method	–	0.00258 ± 0.00015
343.19 K, Closed cell (Static) method	0.00235 ± 0.00015	–
343.72 K, Closed cell (Static) method	–	0.00299 ± 0.00017
344.68 K, Closed cell (Static) method	0.00272 ± 0.00016	–
345.66 K, Closed cell (Static) method	–	0.00348 ± 0.00018
346.2 K, Closed cell (Static) method	0.00311 ± 0.00017	–
347.68 K, Closed cell (Static) method	0.00355 ± 0.00018	0.00409 ± 0.0002
349.17 K, Closed cell (Static) method	0.00409 ± 0.0002	–
349.66 K, Closed cell (Static) method	–	0.00468 ± 0.00022
350.65 K, Closed cell (Static) method	0.00467 ± 0.00022	–
351.63 K, Closed cell (Static) method	–	0.00545 ± 0.00025
352.14 K, Closed cell (Static) method	0.00544 ± 0.00024	–
353.63 K, Closed cell (Static) method	–	0.0063 ± 0.0003
355.58 K, Closed cell (Static) method	–	0.00731 ± 0.00031
357.59 K, Closed cell (Static) method	–	0.0084 ± 0.0004
359.82 K, Closed cell (Static) method	–	0.00981 ± 0.0004
361.57 K, Closed cell (Static) method	–	0.01112 ± 0.00045
361.59 K, Closed cell (Static) method	–	0.01107 ± 0.00045
363.79 K, Closed cell (Static) method	–	0.01285 ± 0.00052
365.52 K, Closed cell (Static) method	–	0.01446 ± 0.00054
367.74 K, Closed cell (Static) method	–	0.01661 ± 0.00057
369.53 K, Closed cell (Static) method	–	0.01887 ± 0.00061
371.72 K, Closed cell (Static) method	–	0.02159 ± 0.00065
373.53 K, Closed cell (Static) method	–	0.02435 ± 0.00069
375.67 K, Closed cell (Static) method	–	0.02768 ± 0.00074
377.47 K, Closed cell (Static) method	–	0.03128 ± 0.0008
379.65 K, Closed cell (Static) method	–	0.03529 ± 0.00086
381.4 K, Closed cell (Static) method	–	0.03955 ± 0.00092
383.6 K, Closed cell (Static) method	–	0.04451 ± 0.001
385.47 K, Closed cell (Static) method	–	0.05021 ± 0.0011
387.56 K, Closed cell (Static) method	–	0.05645 ± 0.0012
391.51 K, Closed cell (Static) method	–	0.07082 ± 0.0014
393.41 K, Closed cell (Static) method	–	0.07755 ± 0.0015
395.41 K, Closed cell (Static) method	–	0.08762 ± 0.0017
397.36 K, Closed cell (Static) method	–	0.09675 ± 0.0018
399.35 K, Closed cell (Static) method	–	0.1089 ± 0.002
401.32 K, Closed cell (Static) method	–	0.1202 ± 0.0022
403.3 K, Closed cell (Static) method	–	0.1342 ± 0.0021
406.25 K, Closed cell (Static) method	–	0.1558 ± 0.0023
407.26 K, Closed cell (Static) method	–	0.1646 ± 0.0023
409.18 K, Closed cell (Static) method	–	0.1808 ± 0.0025
411.21 K, Closed cell (Static) method	–	0.2014 ± 0.0026
413.17 K, Closed cell (Static) method	–	0.2206 ± 0.0028
415.17 K, Closed cell (Static) method	–	0.244 ± 0.003
417.11 K, Closed cell (Static) method	–	0.2679 ± 0.0032
419.13 K, Closed cell (Static) method	–	0.2948 ± 0.0035
421.06 K, Closed cell (Static) method	–	0.3242 ± 0.0037
423.04 K, Closed cell (Static) method	–	0.355 ± 0.004
425 K, Closed cell (Static) method	–	0.3873 ± 0.0043
427.02 K, Closed cell (Static) method	–	0.4288 ± 0.0046
428.95 K, Closed cell (Static) method	–	0.467 ± 0.005
430.77 K, Closed cell (Static) method	–	0.511 ± 0.005
432.92 K, Closed cell (Static) method	–	0.5574 ± 0.0057
434.9 K, Closed cell (Static) method	–	0.604 ± 0.006
436.86 K, Closed cell (Static) method	–	0.6602 ± 0.0066
438.87 K, Closed cell (Static) method	–	0.7204 ± 0.0071
440.85 K, Closed cell (Static) method	–	0.7844 ± 0.0077

Conditions	Normal melting temperature [°C]
[1], Crystal	83.01 ± 0.56

Conditions	Molar enthalpy of transition or fusion [kcal/mol]
[2]	4.21 ± 0.359

OC1c2ccccc2-c2ccccc21 [9H-fluoren-9-ol]
[1]
Conditions	vapor or sublimation pressure
337.16 K, Crystal, Calculated from knudsen effusion weight loss	0.000106 ± 2e-05 kPa
339.13 K, Crystal, Calculated from knudsen effusion weight loss	0.000132 ± 2.1e-05 kPa
341.1 K, Crystal, Calculated from knudsen effusion weight loss	0.000163 ± 2.1e-05 kPa
343.16 K, Crystal, Calculated from knudsen effusion weight loss	0.000196 ± 2.1e-05 kPa
345.09 K, Crystal, Calculated from knudsen effusion weight loss	0.000243 ± 2.2e-05 kPa
347.09 K, Crystal, Calculated from knudsen effusion weight loss	0.000307 ± 2.3e-05 kPa
349.15 K, Crystal, Calculated from knudsen effusion weight loss	0.000385 ± 2.4e-05 kPa
350.76 K, Crystal, Closed cell (Static) method	0.00051 ± 0.00012 kPa
351.11 K, Crystal, Calculated from knudsen effusion weight loss	0.00047 ± 2.6e-05 kPa
352.75 K, Crystal, Closed cell (Static) method	0.00062 ± 0.00012 kPa
353.11 K, Crystal, Calculated from knudsen effusion weight loss	0.000579 ± 2.9e-05 kPa
354.71 K, Crystal, Closed cell (Static) method	0.00075 ± 0.00012 kPa
355.1 K, Crystal, Calculated from knudsen effusion weight loss	0.00071 ± 3.2e-05 kPa
356.59 K, Crystal, Closed cell (Static) method	0.00092 ± 0.00013 kPa
357.09 K, Crystal, Calculated from knudsen effusion weight loss	0.000884 ± 3.7e-05 kPa
358.67 K, Crystal, Closed cell (Static) method	0.00113 ± 0.00013 kPa
359.09 K, Crystal, Calculated from knudsen effusion weight loss	0.001078 ± 8.5e-05 kPa
360.98 K, Crystal, Closed cell (Static) method	0.00139 ± 0.00013 kPa
362.63 K, Crystal, Closed cell (Static) method	0.00165 ± 0.00014 kPa
364.58 K, Crystal, Closed cell (Static) method	0.00198 ± 0.00015 kPa
366.55 K, Crystal, Closed cell (Static) method	0.00238 ± 0.00016 kPa
368.53 K, Crystal, Closed cell (Static) method	0.0029 ± 0.00017 kPa
370.51 K, Crystal, Closed cell (Static) method	0.00343 ± 0.00018 kPa
372.48 K, Crystal, Closed cell (Static) method	0.00418 ± 0.00021 kPa
372.51 K, Crystal, Closed cell (Static) method	0.00419 ± 0.00021 kPa
374.53 K, Crystal, Closed cell (Static) method	0.00504 ± 0.00024 kPa
376.49 K, Crystal, Closed cell (Static) method	0.00599 ± 0.00027 kPa
378.48 K, Crystal, Closed cell (Static) method	0.00711 ± 0.00031 kPa
380.44 K, Crystal, Closed cell (Static) method	0.00855 ± 0.00036 kPa
382.39 K, Crystal, Closed cell (Static) method	0.01001 ± 0.00041 kPa
384.38 K, Crystal, Closed cell (Static) method	0.01183 ± 0.00048 kPa
386.35 K, Crystal, Closed cell (Static) method	0.01393 ± 0.00053 kPa
388.32 K, Crystal, Closed cell (Static) method	0.01662 ± 0.00058 kPa
390.28 K, Crystal, Closed cell (Static) method	0.0195 ± 0.00062 kPa
392.27 K, Crystal, Closed cell (Static) method	0.02263 ± 0.00067 kPa
394.22 K, Crystal, Closed cell (Static) method	0.02684 ± 0.00073 kPa
396.22 K, Crystal, Closed cell (Static) method	0.03155 ± 0.0008 kPa
398.16 K, Crystal, Closed cell (Static) method	0.03678 ± 0.00088 kPa
400.1 K, Crystal, Closed cell (Static) method	0.04277 ± 0.00098 kPa
402.11 K, Crystal, Closed cell (Static) method	0.05007 ± 0.0011 kPa
404.04 K, Crystal, Closed cell (Static) method	0.05782 ± 0.0012 kPa
406.06 K, Crystal, Closed cell (Static) method	0.06738 ± 0.0014 kPa
407.96 K, Crystal, Closed cell (Static) method	0.07784 ± 0.0015 kPa
409.98 K, Liquid, Closed cell (Static) method	0.1186 ± 0.0021 kPa
410 K, Crystal, Closed cell (Static) method	0.09038 ± 0.0017 kPa
411.89 K, Crystal, Closed cell (Static) method	0.104 ± 0.0019 kPa
411.93 K, Liquid, Closed cell (Static) method	0.1331 ± 0.0021 kPa
413.86 K, Crystal, Closed cell (Static) method	0.1211 ± 0.0022 kPa
413.91 K, Liquid, Closed cell (Static) method	0.15 ± 0.0022 kPa
415.85 K, Crystal, Closed cell (Static) method	0.1377 ± 0.0021 kPa
415.88 K, Liquid, Closed cell (Static) method	0.1652 ± 0.0023 kPa
417.82 K, Crystal, Closed cell (Static) method	0.1592 ± 0.0023 kPa
417.86 K, Liquid, Closed cell (Static) method	0.1822 ± 0.0025 kPa
419.78 K, Crystal, Closed cell (Static) method	0.1848 ± 0.0025 kPa
419.81 K, Liquid, Closed cell (Static) method	0.2047 ± 0.0027 kPa
421.73 K, Crystal, Closed cell (Static) method	0.2084 ± 0.0027 kPa
421.79 K, Liquid, Closed cell (Static) method	0.2266 ± 0.0029 kPa
423.71 K, Crystal, Closed cell (Static) method	0.2411 ± 0.003 kPa
423.75 K, Liquid, Closed cell (Static) method	0.2538 ± 0.0031 kPa
425.74 K, Liquid, Closed cell (Static) method	0.2828 ± 0.0034 kPa
427.7 K, Liquid, Closed cell (Static) method	0.3131 ± 0.0036 kPa and 0.3096 ± 0.0036 kPa
429.67 K, Liquid, Closed cell (Static) method	0.3457 ± 0.0039 kPa
431.58 K, Liquid, Closed cell (Static) method	0.3815 ± 0.0042 kPa
431.6 K, Liquid, Closed cell (Static) method	0.3843 ± 0.0042 kPa
433.57 K, Liquid, Closed cell (Static) method	0.4239 ± 0.0046 kPa
435.51 K, Liquid, Closed cell (Static) method	0.4605 ± 0.0049 kPa
435.52 K, Liquid, Closed cell (Static) method	0.4642 ± 0.0049 kPa
437.51 K, Liquid, Closed cell (Static) method	0.5099 ± 0.0053 kPa
439.47 K, Liquid, Closed cell (Static) method	0.5625 ± 0.0058 kPa
441.42 K, Liquid, Closed cell (Static) method	0.615 ± 0.0062 kPa

Conditions	Normal melting temperature [°C]
[1], Crystal	155.6 ± 0.39

Conditions	Molar enthalpy of transition or fusion [kcal/mol]
[2]	5.78 ± 0.359
